Measurements as given in US20050014268A1, “Genetic transformation using a PARP inhibitor” (Bayer BioScience NV, priority 1995, published 2005).

Experiments:
Type in all cases: cell-based
Wheat embryogenic callus = test: Tissue culture of wheat embryogenic callus on W2 medium containing niacinamide
Method: After the one day incubation the capacity of the transformed and control tissues to reduce 2,3,5-triphenyltetrazolium chloride (TTC) is measured e.g. by the following procedure which is modified from Towill and Mazur (supra): • incubate the tissues for 1 to 4 hours in K-phosphate buffer (pH 7.4) containing 10 mM TTC and 0.1% Tween20. […] The O.D. of the control extract is subtracted from the OD of the TTC-reacted extracts. In the above conditions 0.1 mM reduced TTC corresponds to an OD485 of 0.214 or OD545 of 1.025 (light path 1 cm). • the reducing capacity of the transformed plant line is compared to that of the control line. Wheat embryogenic callus was cultured on W2 medium (see Example 2).

[1] = system: Hypocotyl explants of Brassica napus; test: Agrobacterium-mediated transformation of oilseed rape hypocotyl explants with pTHW142 using niacinamide before, during or after infection
Method: Hypocotyl explants of Brassica napus were obtained as described in Example 3. Four groups of 200 hypocotyl explants each, were either not treated with niacinamide (indicated in table 4 as NONE), treated with 250 mg/l niacinamide for 1 day prior to infection with Agrobacterium (BEFORE), treated for 2 days during the infection with 250 mg/l niacinamide (DURING), or treated for 1 day after the Agrobacterium infection with 250 mg/l niacinamide (AFTER).
All hypocotyl explants were infected with Agrobacterium tumefaciens strain C58C1Rif carrying T-DNA vector pTHW142 and a helper Ti-plasmid pMP90 (Koncz and Shell, 1986 supra)(or a derivative thereof). Plasmid pTHW142 is a vector carrying a T-DNA comprising the following chimeric genes: • PSSU-bar-3′g7 • p35S-uidA-3′35S • In which uidA is a DNA encoding b-glucuronidase (Jefferson et al., 1986, Proc. Natl. Acad. Sci. USA 83, 8447-8451) and 3′ 35S is the 3′ untranslated end of the cauliflower mosaic virus 35S transcript. The complete sequence of the T-DNA of pTHW142 is presented in SEQ ID No 5.
After the Agrobacterium infection, hypocotyl explants were transferred to selection medium A5, and if appropriate to A5 medium containing 250 mg/ll niacinamide. The hypocotyl explants that were placed on medium containing niacinamide were transferred after 1 day to niacinamide-free selection medium A5. After 5 weeks on selective medium the number of transformed calli was scored. b-glucuronidase expression was verified in the obtained calli using established protocols (Jefferson et al., 1986).

cultured cells = test: Optimal concentration of PARP inhibitor in the culture medium; conditions: i.e. about 2 mM; incubation not longer than 14 days
Method: The concentration of the PARP inhibitor in the medium is also believed to have an effect on the inhibition of PARP, which varies depending on the nature of the cells (species, tissue explant, general culture conditions, etc.) However, within certain concentration ranges, the effect is minimal, especially when the cultured cells are not incubated for longer than 14 days. The optimal concentration range of PARP inhibitor in the medium may vary depending on the species from which the tissue, cell or cell culture is derived, but 250 mg/l (about 2 mM) is believed to be a suitable concentration for many purposes (e.g. for use with material derived from wheat). However, when nicotinamide is used in combination with plant material derived from rice, the concentration of nicotinamide should preferably be between 500 mg/l (about 4 mM) and 1000 mg/l (approx. 8 mM). On the other hand, when nicotinamide is used in combination with plant material derived from corn, the concentration of nicotinamide should preferably be 100 mg/l. […] The optimal concentration will depend on the nature of the specific PARP inhibitor used, particularly on its strength of inhibition (as measured by its Ki and/or by its percentage inhibition of PARP under standard conditions—Sims et al, supra). […]

SMILES: NC(=O)c1cccnc1 [niacinamide]
- growth of the tissue (rate relative to the normal rate) (Wheat embryogenic callus; 250 mg/l (approx. 2 mM) niacinamide in W2 medium, growth slowed after 4 days, rate after 4 weeks): approximately 30%
- viability of the tissue (Wheat embryogenic callus; 250 mg/l niacinamide in W2 medium, at least one month): remained viable for extended periods of time
- TTC-reducing capacity of the tissue (Wheat embryogenic callus; after 4-5 days of incubation with niacinamide): substantially decreased
- growth after removal of niacinamide from the medium (Wheat embryogenic callus; niacinamide subsequently removed from the medium): started to grow normally again
- Transformation frequency (transformed calli, PPT-resistant and GUS-positive, per 100 hypocotyl explants) ([1]; AFTER: 250 mg/l niacinamide for 1 day after the infection, scored after 5 weeks): 29%
- Transformation frequency (transformed calli, PPT-resistant and GUS-positive, per 100 hypocotyl explants) ([1]; BEFORE: 250 mg/l niacinamide for 1 day prior to infection, scored after 5 weeks on selective medium): 32%
- Remarks (callus size and appearance) ([1]; BEFORE, large: callus diameter of approximately 5 mm): large, green calli
- Transformation frequency (transformed calli, PPT-resistant and GUS-positive, per 100 hypocotyl explants) ([1]; DURING: 250 mg/l niacinamide for 2 days during the infection, scored after 5 weeks): 16%
- Remarks (callus size and appearance) ([1]; DURING, very small: callus diameter of approximately 1-2 mm): very small, light green calli
- transformation efficiency ([1]; niacinamide treatment either before or after the Agrobacterium infection): significantly increase
- optimal concentration in the culture medium (cultured cells): approximately 250 mg/l
